“And” between values parts separate entries of the source, which are not always exact repeats. Identical values can stand only once. The source made the active and inactive calls. Rule for the calls: active = viability on the fitted dose curve at most 10% of control; inactive = the rest.
Tested on: NCI-H841 complex tumor spheroid viability
Assay: Anticancer human tumor NCI-H841 cell line growth inhibition;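 for IC50: spheroids exposed to compounds for 7 days before readout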;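 for viability, T/C: spheroids exposed to compounds for 7 days before readout; 100% = DMSO vehicle control wells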
Settings: for viability, T/C: stronger effect = lower value
Text: Multicellular complex tumor spheroid response to DNA repair inhibitors in combination with DNA-damaging drugs
This study explores the anticancer activities of DNA-damaging drugs and inhibitors of DNA damage repair, both as single agents and in combinations. Complex tumor spheroids comprised of malignant cells, endothelial cells and mesenchymal stem cells served as an in vitro model for human solid tumors. This model system incorporates physiologically relevant features and patient-derived or established malignant cell lines with clinically relevant genetic alterations from many tumor types. Twenty-six patient-derived or established malignant cell lines were evaluated representing sarcoma, melanoma, small cell lung cancer (SCLC), non-small cell lung cancer (NSCLC), as well as bladder, ovarian and pancreatic cancers. The concentration ranges selected for each drug and investigational agent were based upon clinically achievable concentrations if the clinical Cmax of the agent was known.
Compounds. The drugs and compounds olaparib (NSC753686), talazoparib (NSC767125), berzosertib (NSC777718), elimusertib (NSC800525), nedisertib (NSC802822), VX-984 (NSC792969), AZD-1390 (NSC803789), temozolomide (NSC362856), topotecan (NSC609699), trabectedin (NSC813783), staurosporine (NSC755774), and gemcitabine (NSC613327) were obtained from the National Cancer Institute (NCI) Developmental Therapeutics Program Chemical Repository. The FDA-approved anticancer drug set is available from the Developmental Therapeutics Program at https://dtp.cancer.gov/organization/dscb/obtaining/available_plates.htm. […] The stock solutions were prepared in dimethyl sulfoxide (DMSO, Sigma-Aldrich, St. Louis, MO, cat. D2650) at 400-fold the tested concentration and stored at -70 degrees C. Prior to their use, the stock solutions were diluted in fresh medium and the final DMSO concentration in the assay was 0.25% (v/v). All drugs and investigational agents were tested over a range starting from a high concentration at or near the clinical Cmax and decreasing in half-log increments. If the clinical Cmax for an agent had not been determined, the highest concentration tested was 10 microM.
Cell Lines. The patient-derived cancer cell (PDC) lines: 156681-154-R-J1-PDC, 283228-195-R-J1-PDC, 287954-098-R-J1-PDC, 292921-168-R-J2-PDC, 349418-098-R-PDC, 425362-245-T-J1-PDC, 556581-035-R-J1-PDC, and BL0293-F563-PDC were received from the NCI Patient-Derived Models Repository (PDMR, https://pdmr.cancer.gov). The established cell lines HS-SY-2 (RRID:CVCL_8719), MPNST, and SYO-1 (RRID:CVCL_7146) were obtained from the Sloan Kettering Institute. The alveolar soft parts sarcoma cell line ASPS-1 (RRID:CVCL_S738) was established at the NCI and grown from internal seed stocks. The following established cell lines were purchased from the American Type Culture Collection (ATCC, Manassas, VA): G-401 (ATCC, cat. CRL-1441, RRID:CVCL_0270), SW982 (ATCC, cat. HTB-93, RRID:CVCL_1734), VA-ES-BJ (ATCC, cat. CRL-2138, RRID:CVCL_1785), NCI-H719 (ATCC, cat. CRL-5837, RRID:CVCL_1582), NCI-H196 (ATCC, cat. CRL-5823, RRID:CVCL_1509), NCI-H841 (ATCC, cat. CRL-5845, RRID:CVCL_1595), NCI-H1618 (ATCC, cat. CRL-5879, RRID:CVCL_1480), NCI-H1876 (ATCC, cat. CRL-5902, RRID:CVCL_1503), DMS 114 (ATCC, cat. CRL-2066; RRID:CVCL_1174), NCI-H211 (ATCC, cat. CRL-5824; RRID:CVCL_1529), and SW 1271 (ATCC, cat. CRL-2177, RRID:CVCL_1716). The small cell lung cancer cell line COR-L88 was purchased from Sigma-Aldrich (cat. 92031917-1VL, RRID:CVCL_1141). The non-small cell lung cancer cell lines NCI-H226 (RRID:CVCL_1544) and NCI-H322M (RRID:CVCL_1557) were established at the NCI and grown from internal seed stocks. Pooled donor human umbilical vein endothelial cells (HUVEC, Lonza, cat. CC-2519) and human mesenchymal stem cells (hMSC, Lonza, cat. PT-2501) were purchased from Lonza (Walkersville, MD).
Cell Culture. All cells were maintained in an incubator at 37 degrees C and 5% CO2 with 95% humidity. […]

[1] = compound alone, run of 11/07/2019
[2] = compound alone, run of 12/16/2019

SMILES | viability, T/C (compound 0.0316 µM) | viability, T/C (compound 0.1 µM) | viability, T/C (compound 0.316 µM) | viability, T/C (compound 1 µM) | viability, T/C (compound 3.16 µM) | viability, T/C (compound 10 µM) | IC50 (curve of compound) | viability, T/C (compound 0.03 µM) | viability, T/C (compound 0.0949 µM) | viability, T/C (compound 0.3 µM) | viability, T/C (compound 3 µM) | also measured
CC(C)n1c(=O)n(C)c2cnc3cc(F)c(-c4ccc(OCCCN5CCCCC5)nc4)cc3c21 | 96.6% and 93.7% and 101% | 94.6% and 91.3% and 99.4% | 93.6% and 95.8% and 99.8% | 94.1% and 91.1% and 99.3% | 91.6% and 80.8% and 97% | 88.3% and 76.8% and 90.8% | > 10 µM | – | – | – | – | –
CC1COCCN1c1cc(-c2ccnn2C)c2ccnc(-c3ccn[nH]3)c2n1 (stereo not given) | 77.2% and 68.7% and 83.9% | 16.2% and 27.3% and 39.8% | 4.34% and 9.62% and 7.72% | 1.61% and 3.17% and 2.67% | 1.48% and 2.14% and 1.89% | 1.73% and 2.18% and 2.49% | 0.0528 µM and 0.0531 µM and 0.0766 µM | – | – | – | – | –
CC[C@@]1(O)C(=O)OCc2c1cc1n(c2=O)Cc2cc3c(CN(C)C)c(O)ccc3nc2-1 | – | – | – | – | – | – | – | 2.24% [middle of 10 runs] | 1.86% [middle of 10 runs] | 1.86% [middle of 10 runs] | – | viability, T/C (compound 0.003 µM): 98.1% [middle of 10 runs]; IC50 [1]: 12 nM [middle of 5 runs]; IC50 [2]: 15.8 nM [middle of 4 runs]
CNCc1ccc(-c2cc(-c3nc(-c4ccc(S(=O)(=O)C(C)C)cc4)cnc3N)on2)cc1 | – | – | – | – | – | – | 0.066 µM and 0.179 µM and 0.4 µM | 94.6% and 98.1% and 99.8% | 28.9% and 81.8% and 95.3% | 25.2% and 24% and 63.7% | 3.17% and 1.05% and 2.03% | viability, T/C (compound 0.00949 µM): 100% (2×) and 97.3%; viability, T/C (compound 0.949 µM): 6.79% and 3.39% and 9.67%
COc1cc(C)[nH]c(=O)c1CN1CCc2c(Cl)cc(C(OC)C3COC3)c(Cl)c2C1=O (stereo not given) | 91% and 78.5% and 86.2% | 73.6% and 74.6% | 73.2% and 67.7% | 65% and 42.6% and 61.8% | 60.1% and 38.4% and 55.5% | 54.7% and 35.1% and 51.2% | – | – | – | – | – | outcome (compound 0.1 µM): inactive; outcome (compound 0.316 µM): inactive
COc1cc2c(cc1O)CCNC21CSC2c3c(OC(C)=O)c(C)c4c(c3C(COC1=O)N1C(O)C3Cc5cc(C)c(OC)c(O)c5C(C21)N3C)OCO4 (stereo not given) | – | – | – | – | – | – | – | – | – | – | – | viability, T/C (compound 30 pM): 102% [middle of 10 runs]; viability, T/C (compound 94.9 pM): 99.5% [middle of 10 runs]; viability, T/C (compound 0.000949 µM): 3.1% [middle of 10 runs]; viability, T/C (compound 0.003 µM): 0.11% [middle of 4 runs]; IC50 [2]: 0.258 nM [middle of 10 runs]
COc1ccc([C@@H](O)c2cc(-c3ncnc4cc(N5CCOCC5)ccc34)c(F)cc2Cl)nn1 | 97.7% and 102% and 99.6% | 101% and 104% and 99.6% | 95.7% and 99% and 96.2% | 93.4% and 89.9% | 67% and 34.4% and 73.9% | 13.7% and 8.86% and 17% | 4.57 µM and 2.15 µM and 5.09 µM | – | – | – | – | outcome (compound 1 µM): inactive
Cc1cc(C)c(CNC(=O)c2cc(-c3ccc(CN4CCOCC4)cc3)cc3c2cnn3C2CCCC2)c(=O)[nH]1 | 101% and 99.7% and 102% | 103% and 98.5% and 102% | 99.7% and 106% and 98.5% | 99.8% and 93.7% and 97.1% | 87.3% and 84.7% and 80.8% | 65.2% and 43.9% and 50.7% | > 10 µM and 8.45 µM | – | – | – | – | –
Cc1sc2c(c1C)C(c1ccc(Cl)cc1)=NC(CC(=O)Nc1ccc(O)cc1)c1nnc(C)n1-2 (stereo not given) | – | – | – | – | – | – | 0.452 µM and 0.604 µM and 0.807 µM | 110% and 95.7% and 101% | 87.8% and 91.9% and 91.2% | 65.4% and 75.9% and 82.7% | 8.1% and 7.29% and 14.4% | viability, T/C (compound 0.00949 µM): 104% and 97.9% and 102%; viability, T/C (compound 0.949 µM): 25.2% and 33.3% and 44%
Cn1ncnc1[C@H]1c2n[nH]c(=O)c3cc(F)cc(c23)N[C@@H]1c1ccc(F)cc1 | – | – | – | – | – | – | – | 85.4% and 30.6% and 90.1% | 80.3% and 9.88% and 89.6% | 55.7% and 62.9% and 83.3% | 7.92% and 2.5% and 1.44% | viability, T/C (compound 0.00949 µM): 90.1% and 29.7% and 97.4%
Cn1nnc2c(C(N)=O)ncn2c1=O | – | – | – | 101% [middle of 9 runs] | 101% [middle of 10 runs] | 101% [middle of 10 runs] | – | – | – | – | – | IC50 [1]: > 100 µM and 17.4 µM
O=C(c1cc(Cc2n[nH]c(=O)c3ccccc23)ccc1F)N1CCN(C(=O)C2CC2)CC1 | – | – | – | – | – | – | 2.58 µM and 6.16 µM and 5.1 µM | – | 101% and 95.3% and 103% | 93.6% and 103% | 43.4% and 81.5% and 88.2% | outcome (compound 0.3 µM): inactive; viability, T/C (compound 0.949 µM): 94.8% and 89.4% and 99.4%; viability, T/C (compound 30 µM): 8.7% and 7.95% and 1.92%
[2H]c1nc(C)nc([2H])c1-c1cc(NC[C@@H](C)c2cccc3c(C(=O)NC)ccnc23)ncn1 | 100% and 97.5% and 102% | 99.4% and 97.2% and 100% | 98.4% and 102% and 98.1% | 98.7% and 99.9% and 96.8% | 98.2% and 103% and 95.4% | 92.6% and 102% and 96.8% | > 10 µM | – | – | – | – | –

Reference: PubChem BioAssay AID1845213 (Molecular Pharmacology Branch, DTP, NCI, 2023)
